Experiments:
[1] = target: T1, recombinant human PTP1B protein (Homo sapiens, UniProt P18031); test: Phosphatase activity assay with DiFMUP, PTP1B inhibition; assay type: biochemical; details: for IC50: DiFMUP 25 µM, 80 ng/mL PTP1B, compounds 0.1–80 μM, M ± SEM (n = 24), read-out: IC50 for the inhibitory effect on PTP1B activity
T1 construct: purchased Abcam ab51277
T1 sequence (P18031 1-321 limits assumed): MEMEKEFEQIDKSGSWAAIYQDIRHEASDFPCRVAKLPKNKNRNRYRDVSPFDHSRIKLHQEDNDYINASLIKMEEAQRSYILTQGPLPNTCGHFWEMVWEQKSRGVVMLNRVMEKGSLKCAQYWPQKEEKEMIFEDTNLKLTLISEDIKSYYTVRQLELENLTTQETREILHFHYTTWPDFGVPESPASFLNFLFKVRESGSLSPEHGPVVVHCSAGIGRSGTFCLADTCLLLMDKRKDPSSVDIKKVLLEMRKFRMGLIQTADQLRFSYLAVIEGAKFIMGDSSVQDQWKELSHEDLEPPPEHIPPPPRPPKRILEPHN
Method: The measurement of the activity of the phosphatases PTP1B and TC-PTP and their inhibition was carried out using 6,8-difluoro-4methylumbelliferyl phosphate (DiFMUP), as previously described. The stock solution of recombinant human PTP1B protein (#ab51277, Abcam, Cambridge, UK), at a concentration of 1 µg/µL, was prepared in 25 mM Tris–HCl (pH 7.5), 20% glycerol, 2 mM β-mercaptoethanol, 1 mm EDTA, and 1 mM DTT, and stored at −20 °C. Active human recombinant TC-PTP protein was purchased from Sigma-Aldrich (#SRP0218, Saint Louis, MO, USA) as the aqueous buffer solution at a concentration of 2.9 mg/mL, and aliquots were stored at −80 °C. The fluorogenic substrate DiFMUP (#D6567, Molecular Probes, Thermo Fisher Scientific, Waltham, MA, USA) was dissolved at a concentration of 10 mM in N,N-dimethylformamide and stored in aliquots at −20 °C. The 6,8-difluoro-7-hydroxy-4-methylcoumarin (DiFMU, #D6566, Molecular Probes, Thermo Fisher Scientific, Waltham, MA, USA) was used as a reference fluorescent standard. For the IC50 determination, the assay was carried out in black flat bottom 96-well plates using a reaction volume of 100 µL. The phosphatases (PTP1B or TC-PTP) were preincubated with the tested compounds (0.1–80 µM) in 50 mM HEPES (pH 6.9), 100 mM NaCl, 1 mM EDTA, 2 mM DTT, 0.1 mg/mL BSA for 5 min at 37 °C. The following concentrations of the compounds were studied: 0.1, 0.2, 0.5, 1, 2, 5, 10, 20, 40, and 80 μM. The reactions were initiated by the addition of the fluorogenic substrate DiFMUP and diluted in the assay buffer. Progress curves for hydrolysis reaction were obtained with 25 µM of DiFMUP for 80 ng/mL PTP1B, and 35 µM of DiFMUP for 80 ng/mL TC-PTP. Fluorescence excitation of hydrolyzed DiFMUP and the fluorescent standard DiFMU was monitored at 355 nm and emission was detected at 460 nm for 6–10 min at 30 s intervals in a Fluoroskan Ascent FL microplate reader (Thermo Electron Corporation, Vantaa, Finland). Initial velocities of the reactions were used to calculate the IC50 values using GraphPad Prism.
The data on food intake, body weight, and biochemical parameters in rats, as well as the PCR data, were analyzed using the IBM SPSS Statistics 22 software (“IBM”, Armonk, NY, USA), and the results are presented as mean ± standard error of the mean (M ± SEM). All differences are considered significant at p < 0.05. The calculation of the IC50 values of the studied inhibitors for the initial velocities of enzymatic reactions (PTP1B, TC-PTP) was carried out using the nonlinear regression analysis with GraphPad Prism 8 (“GraphPad Software, Inc.”, Boston, MA, USA). The statistical analysis was carried out using the Wilcoxon test for pairwise comparison and Dunn’s test for multiple comparisons.

[2] = system: leptin receptor gene (LepR); test: Gene expression in the liver of obese rats (qPCR), leptin receptor gene; assay type: in vivo, rat; details: five-day treatment, difference with Ob group not significant
Method: Further, six groups were formed: control (Con, n = 10), obesity (Ob, n = 10), obese rats with five-day treatment with compounds 1 (Ob + 1, n = 5), 2 (Ob + 2, n = 5), 3 (Ob + 3, n = 10), and 4 (Ob + 4, n = 10). All compounds were administered in DMSO (300 µL) at a daily dose of 7 mg/kg (1 and 2), 8 mg/kg (3), and 10 mg/kg (4) (i.p.), based on the results of the preliminary experiments. The used doses of compounds 1–4, in terms of the number of moles of each compound per kg of animal body weight, were equivalent. Control and obese rats received DMSO in the same volumes (300 µL), instead of the tested compounds. During the five days of the experiment, all animals were transferred to standard food and had free access to food and drinking water. […]
The total RNA was isolated from the liver samples of rats using the “ExtractRNA Reagent” (Evrogen, Moscow, Russia), and the samples containing 1 μg of RNA were transcribed to cDNA using the random oligodeoxynucleotide primers and the “MMLV RT kit” (Evrogen, Russia). […] The amplified signals were detected using the “Applied Biosystems® 7500 Real-Time PCR System” (Life Technologies, Carlsbad, CA, USA, Thermo Fisher Scientific Inc., USA). […] The obtained data were calculated with the delta–delta Ct method and expressed as a fold expression, relative to the corresponding control. […]

| Structure (SMILES) | IC50 [1] | selectivity for PTP1B compared to that for TC-PTP ([1]; from IC50 values of Table 1) | expression of the gene encoding the leptin receptor in the liver [2] |
| --- | --- | --- | --- |
| O=c1c(CO)n[nH]c2ccccc12 [Compound 1] | 3.78 ± 0.34 µM | 5–7 fold | – |
| O=c1c(CO)n[nH]c2ccc(Cl)cc12 [Compound 3, 6-Chloro-3-(hydroxymethyl)cinnolin-4(1H)-one] | 5.11 ± 0.57 µM | – | slight decrease |
| O=c1c(CO)n[nH]c2ccc(Br)cc12 [Compound 4, 6-Bromo-3-(hydroxymethyl)cinnolin-4(1H)-one] | 11 ± 1.34 µM | – | slight decrease |

From PMC10002984, “Dual PTP1B/TC-PTP Inhibitors: Biological Evaluation of 3-(Hydroxymethyl)cinnoline-4(1H)-Ones” (International Journal of Molecular Sciences, 2023)
